According to patent US20230099293A1, “OGA INHIBITOR COMPOUNDS” (priority 2019, published 2023):

Columns and labels:
[1] = target: T1, recombinant human Meningioma Expressed Antigen 5 (MGEA5), also referred to as O-GlcNAcase (OGA) (Homo sapiens, UniProt O60502); assay: OGA biochemical assay (inhibition of FM-GlcNAc hydrolysis, fluorescence); details: for IC50: Enzymatic hOGA; for Emax: read-out: Enzymatic Emax (%)
T1 construct: Full length OGA enzyme was purchased at OriGene (cat #TP322411); purchased OriGene TP322411
T1 sequence (O60502 1-916): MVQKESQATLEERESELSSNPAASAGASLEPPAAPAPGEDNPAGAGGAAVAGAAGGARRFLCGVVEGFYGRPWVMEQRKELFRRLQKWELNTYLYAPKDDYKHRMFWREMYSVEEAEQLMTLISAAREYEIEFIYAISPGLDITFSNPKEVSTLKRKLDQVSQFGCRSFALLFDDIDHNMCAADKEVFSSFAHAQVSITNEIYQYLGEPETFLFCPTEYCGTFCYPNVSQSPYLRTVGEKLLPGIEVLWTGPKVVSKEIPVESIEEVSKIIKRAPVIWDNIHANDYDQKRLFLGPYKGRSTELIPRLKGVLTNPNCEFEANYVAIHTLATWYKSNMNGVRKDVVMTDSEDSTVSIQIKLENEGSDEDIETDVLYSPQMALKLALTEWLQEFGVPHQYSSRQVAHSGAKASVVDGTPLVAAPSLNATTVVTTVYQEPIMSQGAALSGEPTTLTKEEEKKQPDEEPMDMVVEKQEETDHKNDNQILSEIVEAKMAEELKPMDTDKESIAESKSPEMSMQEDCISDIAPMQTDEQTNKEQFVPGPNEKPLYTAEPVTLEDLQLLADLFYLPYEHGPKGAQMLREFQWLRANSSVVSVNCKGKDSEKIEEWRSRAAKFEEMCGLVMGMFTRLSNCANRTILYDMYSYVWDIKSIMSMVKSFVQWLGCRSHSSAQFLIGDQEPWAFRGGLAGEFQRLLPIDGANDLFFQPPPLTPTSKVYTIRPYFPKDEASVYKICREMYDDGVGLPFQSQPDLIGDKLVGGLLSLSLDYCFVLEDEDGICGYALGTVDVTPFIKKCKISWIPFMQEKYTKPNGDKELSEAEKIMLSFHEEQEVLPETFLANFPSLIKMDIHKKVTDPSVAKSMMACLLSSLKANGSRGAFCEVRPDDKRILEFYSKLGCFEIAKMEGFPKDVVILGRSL
Method in brief: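 Full-length recombinant OGA at 2 nM with 100 uM FM-GlcNAc in 200 mM citrate/phosphate buffer, 0.005% Tween-20. IC50 and Hill coefficient from curve fit between no-inhibitor and saturating standard-inhibitor controls.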

[2] = target: T2, hOGA (Homo sapiens, UniProt O60502); assay: OGA cellular assay (ICC detection of O-GlcNAcylated proteins in HEK293 cells inducible for P301L mutant human Tau); type: cell-based; design: Emax: dose or concentration left out as unconfirmed; details: for EC50: Cellular hOGA; for Emax: HEK293, read-out: Cellular Emax (%)
T2 construct: endogenous in cells; host or cells: HEK293 cells inducible for P301L mutant human Tau (isoform 2N4R)
T2 sequence (O60502 1-916): T1 sequence (O60502 1-916)
Method in brief: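 HEK293 cells inducible for P301L Tau (2N4R), seeded in low-glucose medium, treated with compound for 6 h at 0.2% DMSO. After PFA fixation, O-GlcNAcylated proteins stained with CTD110.6 and imaged (488 nm intensity, 9 fields/well); Hoechst nuclei count for toxicity. IC50 by non-linear regression, Thiamet-G 200 μM as maximum.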

[3] = pIC50, Table 5, full length OGA 2 nM, FM-GlcNAc 100 uM, 6 h at room temperature
[4] = pEC50, Table 5, HEK293 P301L Tau cells, 6 hours incubation, O-GlcNAcylation readout
[5] = pEC50, second table, averaged values over several runs, obtained after recalibration of the equipment
[6] = pIC50, second table, averaged values over several runs, obtained after recalibration of the equipment

Compound	IC50 [1, 3]	Emax [1]	EC50 [2, 4]	Emax [2]	melting point	EC50 [2, 5]	IC50 [1, 6]
CN(C)C(=O)Cn1cnc2c(Nc3c(Cl)cc(OC(F)(F)F)cc3Cl)nccc21 [Compound 7]	6.92 nM	102%	372 nM	66%	201.5 °C	–	–
Cc1ccnc(C(C)C)c1Nc1nccc2c1ncn2CC(=O)N(C)C [Compound 14]	14.1 nM	100%	427 nM	75%	223.3 °C	–	–
Cc1cc(C(F)(F)F)cc(C)c1Nc1ncc(C)c2c1cnn2CC(=O)N(C)C [Compound 81, 2-(4-((2,6-Dimethyl-4-(trifluoromethyl)phenyl)amino)-7-methyl-1H-pyrazolo[4,3-c]pyridin-1-yl)-N,N-dimethylacetamide]	69.2 nM	100%	537 nM	66%	211.6 °C	151 nM	–
CC(C)c1cc(F)cc(Cl)c1Nc1nccc2c1ncn2CC(=O)N(C)C [Compound 47]	13.5 nM	97%	67.6 nM	110%	251.8 °C	–	–
Cc1cc(C(F)(F)F)cc(C)c1Nc1nccc2c1ncn2CC(=O)N1CCCC1 [Compound 49]	93.3 nM	95%	646 nM	57%	196.6 °C	–	–
Cc1nn(-c2cccc(F)c2)c(C)c1Nc1nccc2c1ncn2CC(=O)N(C)C [Compound 34]	36.3 nM	99%	562 nM	54%	181.5 °C	–	–
Cc1cc(F)c(F)c(C)c1Nc1nccc2c1ncn2CC(=O)N(C)C [Compound 78]	–	–	–	–	198.1 °C	427 nM	21.4 nM
Cc1c(C(F)(F)F)nn(C)c1Nc1nccc2c1ncn2CC(=O)N(C)C [Compound 39]	631 nM	94%	> 1000 nM	12%	240 °C	–	–
Cc1cc(F)c(F)c(C)c1Nc1nccc2c1ncn2CC(=O)N1CCC1 [Compound 79]	–	–	–	–	214.8 °C	> 1000 nM	251 nM
Cc1c(-c2cccc(F)c2)nn(C)c1Nc1nccc2c1ncn2CC(=O)N(C)C [Compound 40]	105 nM	102%	> 1000 nM	27%	230 °C	–	–
Cc1ccc(-n2nc(C)c(Nc3nccc4c3ncn4CC(=O)N(C)C)c2C)cc1C [Compound 42]	21.9 nM	93%	295 nM	70%	144.7 °C	–	–
CCCCn1ncc2c(Nc3c(Cl)cccc3Cl)nccc21 [Compound 66, 1-Butyl-N-(2,6-dichlorophenyl)pyrazolo[4,3-c]pyridin-4-amine]	85.1 nM	104%	> 1000 nM	45%	144.7 °C	–	–
Cc1cc(Cn2cnc3c(Nc4c(C)cc(C(F)(F)F)cc4C)nccc32)no1 [Compound 80]	8.91 nM	104%	–	94%	164.7 °C	–	–
Cc1cc(-c2cnn(C)c2)cc(C(C)C)c1Nc1nccc2c1ncn2CC(=O)N(C)C [Compound 22]	41.7 nM	98%	> 1000 nM	31%	234.4 °C	–	–
Cc1cc(OC(F)(F)F)cc(C)c1Nc1nccc2c1ncn2CC(=O)N(C)C [Compound 9]	6.76 nM	99%	58.9 nM	82%	186.5 °C	–	–
Cc1nn(-c2cccc(C#N)c2)c(C)c1Nc1nccc2c1ncn2CC(=O)N(C)C [Compound 33]	20.4 nM	97%	479 nM	63%	239.9 °C	–	–
Cc1cc(Cl)cc(C)c1Nc1nccc2c1ncn2CC(=O)N(C)C [Compound 11]	10 nM	99%	209 nM	62%	209.8 °C	–	–
Cc1cc(C(F)(F)F)cc(C)c1Nc1nccc2c1ncn2CC(=O)N1CCC1 [Compound 50]	126 nM	94%	933 nM	48%	176.4 °C	–	–
Cc1cc(C)cc(-n2nc(C)c(Nc3nccc4c3ncn4CC(=O)N(C)C)c2C)c1 [Compound 43]	14.8 nM	99%	437 nM	65%	154.7 °C	–	–
